We go through eleven molecules from paper PMC6270184, “Synthesis and Structure-Activity Relationships of Amino Acid Conjugates of Cholanic Acid as Antagonists of the EphA2 Receptor” (Molecules, 2013).

For data set [1], the target named is T1, EphA2 receptor (Mus musculus, UniProt Q03145). Put plainly: ELISA displacement of ephrin-A1 binding from immobilized EphA2 receptor. As to conditions: for ability to disrupt the EphA2-ephrin-A1 interaction (in words): ELISA binding assay. As for the experimental part: The pIC50 values of tested compounds are reported in Table 1, together with the corresponding standard deviations of the mean (SEM).
T1 sequence (Q03145 with tags, fused parts or gaps limits assumed): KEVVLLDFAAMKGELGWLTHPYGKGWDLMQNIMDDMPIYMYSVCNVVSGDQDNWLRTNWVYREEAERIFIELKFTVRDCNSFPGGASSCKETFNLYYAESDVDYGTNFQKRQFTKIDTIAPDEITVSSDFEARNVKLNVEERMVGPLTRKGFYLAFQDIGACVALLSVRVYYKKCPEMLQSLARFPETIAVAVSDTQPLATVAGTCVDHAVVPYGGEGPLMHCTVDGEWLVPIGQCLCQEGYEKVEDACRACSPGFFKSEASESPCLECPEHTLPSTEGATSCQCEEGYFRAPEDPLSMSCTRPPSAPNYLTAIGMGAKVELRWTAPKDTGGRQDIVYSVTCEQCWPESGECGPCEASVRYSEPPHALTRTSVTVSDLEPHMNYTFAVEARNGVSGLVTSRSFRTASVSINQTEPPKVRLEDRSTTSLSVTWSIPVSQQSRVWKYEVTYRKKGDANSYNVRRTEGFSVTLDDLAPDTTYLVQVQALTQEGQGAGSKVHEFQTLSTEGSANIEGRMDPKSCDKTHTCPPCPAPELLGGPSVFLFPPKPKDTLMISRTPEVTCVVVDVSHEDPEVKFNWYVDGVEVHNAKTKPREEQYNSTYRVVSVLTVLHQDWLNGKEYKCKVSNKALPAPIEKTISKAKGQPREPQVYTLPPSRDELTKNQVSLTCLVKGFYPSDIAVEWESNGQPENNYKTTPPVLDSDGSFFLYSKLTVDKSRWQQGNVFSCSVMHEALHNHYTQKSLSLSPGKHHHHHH
ELISA assays were performed as previously described. Briefly, compounds were stocked as 5 mM solutions in dimethyl sulfoxide (DMSO) and tested in displacing studies, starting from a concentration of 50 µM. […] The reaction was stopped with 3N HCl 100 µL/well and the absorbance was measured using an ELISA plate reader (Sunrise, TECAN, Männedorf, Switzerland) at 450 nm. IC50 values were determined using one-site competition non-linear regression analysis with Prism software (GraphPad Software Inc., San Diego, CA, USA).
(An ELISA detects its analyte on a solid surface through an enzyme-linked reagent.)

Data set [2] deals with T1, EphA2 receptor. As to conditions: cited from earlier work.
Data set [3] relates to FXR. The following applies: cited from earlier work.
Data set [4] relates to TGR5 receptor. As to conditions: cited from earlier work.
Where [5] appears, read: inhibition of biotinylated ephrin-A1-Fc binding to EphA2-Fc, means ± SEM from at least three independent experiments, read-out: pIC50±SEM (converted).
Setting [6] is: ref data from an unpublished study.

Molecules are shown by their SMILES. Where two headings read alike, the source gives them in different places.

Turning to `C[C@H](CCC(=O)O)[C@H]1CC[C@H]2[C@@H]3CCC4CCCC[C@]4(C)[C@H]3CC[C@]12C` (some centres unmarked) [Compound 1, cholanic acid], the IC50 in data set [1] is 12.3 µM. In addition, in data set [2], the “pIC50, inhibition of the EphA2-ephrin-A1 interaction” value is on record as 4.91.

The melting point is the temperature of the solid-liquid transition. Take `C[C@H](CCC(=O)NCC(=O)O)[C@H]1CC[C@H]2[C@@H]3CC[C@@H]4CCCC[C@]4(C)[C@H]3CC[C@]12C` [Compound 2, N-(5β-cholan-24-oyl)glycine]: the melting point lay in the range of 192 to 195 °C.

Consider `COC(=O)CNC(=O)CC[C@@H](C)[C@H]1CC[C@H]2[C@@H]3CC[C@@H]4CCCC[C@]4(C)[C@H]3CC[C@]12C` [Compound 3, Methyl N-(5β-cholan-24-oyl)glycinate], for which the “ability to disrupt the EphA2-ephrin-A1 interaction (in words)” value in data set [1] was “inactive”. In data set [1] (setting [5]), the IC50 was more than 316 µM.

For the molecule `C[C@H](CCC(=O)NCCC(=O)O)[C@H]1CC[C@H]2[C@@H]3CC[C@@H]4CCCC[C@]4(C)[C@H]3CC[C@]12C` [Compound 4, N-(5β-Cholan-24-oyl)-β-alanine], the melting point lay within 152 to 155 °C.

Turning to `C[C@H](CCC(=O)NCCS(=O)(=O)O)[C@H]1CC[C@H]2[C@@H]3CC[C@@H]4CCCC[C@]4(C)[C@H]3CC[C@]12C` [Compound 5, 2-[N-(5β-Cholan-24-oyl)amino]ethanesulfonic Acid], the “ability to disrupt the EphA2-ephrin-A1 interaction (in words)” value in data set [1] is listed as “loss of inhibitory activity”. The IC50 in data set [1] (setting [5]) was more than 316 µM.

Take `C[C@H](CCC(=O)N[C@@H](Cc1ccccc1)C(=O)O)[C@H]1CC[C@H]2[C@@H]3CC[C@@H]4CCCC[C@]4(C)[C@H]3CC[C@]12C` [Compound 6, N-(5β-Cholan-24-oyl)-L-phenylalanine]: the melting point lay in the range of 189 to 192 °C. In addition, the IC50 in data set [1] (setting [5]) is 21.4 µM.

The molecule `C[C@H](CCC(=O)N[C@H](Cc1ccccc1)C(=O)O)[C@H]1CC[C@H]2[C@@H]3CC[C@@H]4CCCC[C@]4(C)[C@H]3CC[C@]12C` [Compound 7, N-(5β-cholan-24-oyl)-D-phenylalanine] had a melting point of 195 to 198 °C. The IC50 in data set [1] (setting [5]) is 26.3 µM.

For `C[C@H](CCC(=O)N[C@@H](Cc1c[nH]c2ccccc12)C(=O)O)[C@H]1CC[C@H]2[C@@H]3CC[C@@H]4CCCC[C@]4(C)[C@H]3CC[C@]12C` [Compound 8, N-(5β-cholan-24-oyl)-L-tryptophan], the melting point was in the range of 98 to 101 °C. The IC50 in data set [1] (setting [5]) was 28.2 µM.

Consider `C[C@H](CCC(=O)N[C@H](Cc1c[nH]c2ccccc12)C(=O)O)[C@H]1CC[C@H]2[C@@H]3CC[C@@H]4CCCC[C@]4(C)[C@H]3CC[C@]12C` [Compound 9, N-(5β-cholan-24-oyl)-D-tryptophan], for which the melting point lay in the range of 141 to 145 °C. For the same molecule, in data set [1] (setting [5]), the IC50 is 63.1 µM.

With `C[C@H](CCC(=O)O)[C@H]1CC[C@H]2[C@@H]3CC[C@@H]4C[C@H](O)CC[C@]4(C)[C@H]3CC[C@]12C` [LCA, lithocholic acid], the “agonism of FXR (in words)” value in data set [3] was “rather potent agonist”. In data set [4], the “agonism of TGR5 (in words)” value is on record as “rather potent agonist”.

In the case of `C[C@H](CCC(=O)N[C@@H](Cc1c[nH]c2ccccc12)C(=O)O)[C@H]1CC[C@H]2[C@@H]3CC[C@@H]4C[C@H](O)CC[C@]4(C)[C@H]3CC[C@]12C` [PCM126/UniPR126], the “interaction with FXR (in words)” value in data set [3] (setting [6]) is “does not interact”. Besides, the “activity on TGR5 receptor (in words)” value in data set [4] (setting [6]) is on record as “micromolar range”.
